Data published in PubChem BioAssay (NCI).
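Results reflect a 48-hour exposure of cells in 96-well plates to compound at five concentrations. The concentration for 50% growth inhibition is given as GI50. TGI: total growth inhibition.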

What was measured:
Assay in all cases: NCI anticancer screen, dose series, 48 h
[1] = tested on: CCRF-CEM leukemia
[2] = tested on: HCT-116 colon
[3] = tested on: HCT-15 colon
[4] = tested on: HS 578T breast
[5] = tested on: LOX IMVI melanoma
[6] = tested on: OVCAR-3 ovarian
[7] = tested on: OVCAR-4 ovarian
[8] = tested on: PC-3 prostate
[9] = tested on: SF-295 CNS
[10] = tested on: SK-MEL-2 melanoma
[11] = tested on: SNB-19 CNS
[12] = tested on: SNB-75 CNS
[13] = tested on: UO-31 renal

With `C=CCn1c(-c2ccc(-c3cs/c(=N\N=O)n3CC=C)cc2)cs/c1=N\N=O` the TGI [1] was > 100 µM, the TGI [2] was > 100 µM and the TGI [3] was > 100 µM. The TGI [4] was > 100 µM, the TGI [5] was > 100 µM and the TGI [6] was > 100 µM. The TGI [7] was 57.4 µM, the TGI [8] was > 100 µM and the TGI [9] was > 100 µM. The TGI [10] was > 100 µM, the TGI [11] was > 100 µM and the TGI [12] was 88.5 µM. The TGI [13] was > 100 µM.

In the case of `CC(C)C(NCc1c(O)ccc2c(-c3ccccc3)cc(=O)oc12)C(=O)O` (centres undefined), the TGI [1] is reported as > 100 µM, the TGI [2] is reported as > 100 µM and the TGI [3] is reported as > 100 µM. For the same molecule, the TGI [4] was > 100 µM, the TGI [5] was > 100 µM and the TGI [6] was > 100 µM. For the same molecule, the TGI [7] was > 100 µM, the TGI [8] was > 100 µM and the TGI [9] was > 100 µM. The TGI [10] was > 100 µM, the TGI [11] was > 100 µM and the TGI [12] was > 100 µM. The TGI [13] was > 100 µM.

`COc1ccc(CCNC(=O)[C@H]2CCCC[C@@H]2CCO)cc1OC` was tested, and the TGI [1] was > 100 µM, the TGI [2] was > 100 µM and the TGI [3] was > 100 µM. For the same molecule, the TGI [4] was > 100 µM, the TGI [6] was > 100 µM and the TGI [7] was > 100 µM. The TGI [8] was > 100 µM, the TGI [9] was > 100 µM and the TGI [10] was > 100 µM. The TGI [11] was > 100 µM, the TGI [12] was > 100 µM and the TGI [13] was > 100 µM.

For `O=c1oc2ccc([N+](=O)[O-])cc2c(Nc2ccc3c(c2)S(=O)(=O)c2ccccc2O3)c1[N+](=O)[O-]`, the TGI [1] was > 100 µM, the TGI [2] was > 100 µM and the TGI [3] was > 100 µM. For the same molecule, the TGI [4] was > 100 µM, the TGI [5] was > 100 µM and the TGI [6] was > 100 µM. The TGI [7] was > 100 µM, the TGI [8] was > 100 µM and the TGI [9] was > 100 µM. The TGI [10] was > 100 µM, the TGI [11] was > 100 µM and the TGI [12] was > 100 µM. The TGI [13] was > 100 µM.

With `C/C(=N\Nc1nc2ccccc2s1)c1cc(C)ncn1` the TGI [1] was 4.2 µM, the TGI [2] was > 27.2 µM and the TGI [3] was 13 µM. For the same molecule, the TGI [4] was 12.7 µM, the TGI [5] was > 100 µM and the TGI [6] was > 25 µM. For the same molecule, the TGI [7] was > 39.8 µM, the TGI [8] was 34.5 µM and the TGI [9] was 30.9 µM. For the same molecule, the TGI [10] was 23 µM, the TGI [11] was 61.5 µM and the TGI [12] was 15.1 µM. It also gave a TGI [13] of 3.84 µM.

In the case of `Cc1nc2c(=O)n3c4c(cccc4c2o1)CCC3`, the TGI [1] is reported as > 100 µM, the TGI [2] is reported as > 100 µM and the TGI [3] is reported as > 100 µM. The TGI [4] was > 100 µM, the TGI [5] was > 100 µM and the TGI [6] was > 100 µM. For the same molecule, the TGI [7] was > 100 µM, the TGI [8] was > 100 µM and the TGI [9] was > 100 µM. The TGI [10] was > 100 µM, the TGI [11] was > 100 µM and the TGI [12] was > 100 µM. For the same molecule, the TGI [13] was > 100 µM.

In the case of `CC(=O)OCC(Br)C1(C)CCC(C(C)(C)Br)O1` (centres undefined), the TGI [1] is reported as > 100 µM, the TGI [2] is reported as > 100 µM and the TGI [4] is reported as > 100 µM. For the same molecule, the TGI [5] was > 100 µM, the TGI [6] was > 100 µM and the TGI [7] was 72 µM. The TGI [8] was > 100 µM, the TGI [9] was > 100 µM and the TGI [10] was > 100 µM. For the same molecule, the TGI [11] was > 100 µM, the TGI [12] was > 100 µM and the TGI [13] was > 100 µM.

In the case of `O=c1ccn(C2OC(CN(O)CCC3C(CO)OC(n4ccc(=O)[nH]c4=O)C3O)C(O)C2O)c(=O)[nH]1` (centres undefined), the TGI [1] is reported as > 100 µM, the TGI [2] is reported as > 100 µM and the TGI [3] is reported as > 100 µM. The TGI [4] was > 100 µM, the TGI [6] was > 100 µM and the TGI [7] was > 100 µM. For the same molecule, the TGI [8] was > 100 µM, the TGI [9] was > 100 µM and the TGI [10] was > 100 µM. The TGI [11] was > 100 µM, the TGI [12] was > 100 µM and the TGI [13] was > 100 µM.

For `Nc1nc(N)c2nc(CNc3ccc(C(=O)NC(CCCCNC(=O)c4ccccc4C(=O)O)C(=O)O)cc3)cnc2n1` (centres undefined), the GI50 [1] was 0.00306 µM, the TGI [1] was > 100 µM and the GI50 [2] was 0.000622 µM. For the same molecule, the TGI [2] was > 100 µM, the GI50 [3] was 0.00522 µM and the TGI [3] was > 100 µM. For the same molecule, the TGI [4] was > 100 µM, the GI50 [5] was 0.000869 µM and the TGI [5] was > 100 µM. For the same molecule, the TGI [6] was > 100 µM, the TGI [7] was > 100 µM and the GI50 [8] was 0.000432 µM. The TGI [8] was > 100 µM, the GI50 [9] was 0.0191 µM and the TGI [9] was > 100 µM. The TGI [10] was > 100 µM, the TGI [11] was > 100 µM and the TGI [12] was > 100 µM. The TGI [13] was > 100 µM.

`CCOC(=O)c1c(N2CCCC2)[nH]c(=O)c(C(c2cccs2)c2c(O)c(C(=O)OCC)c(N3CCCC3)[nH]c2=O)c1O` was tested, and the TGI [1] was > 100 µM, the TGI [2] was > 100 µM and the TGI [3] was > 100 µM. The TGI [4] was > 100 µM, the TGI [5] was > 100 µM and the TGI [6] was > 100 µM. The TGI [7] was > 100 µM, the TGI [8] was > 100 µM and the TGI [9] was > 100 µM. For the same molecule, the TGI [10] was > 100 µM, the TGI [11] was > 100 µM and the TGI [12] was > 100 µM. The TGI [13] was > 100 µM.

Work on `O=C1c2ccccc2C(=O)c2oc(Br)cc21` yielded a TGI [1] of 6.66 µM, a TGI [2] of 2.7 µM and a TGI [3] of 1.91 µM. The TGI [4] was 0.732 µM, the TGI [5] was > 100 µM and the TGI [6] was 5.67 µM. It also gave a TGI [7] of 3.55 µM, a TGI [8] of 11.1 µM and a TGI [9] of 1.03 µM. For the same molecule, the TGI [10] was 1.73 µM, the TGI [11] was 2.87 µM and the TGI [12] was 0.684 µM. It also gave a TGI [13] of 2.85 µM.

In the case of `NC(=O)c1cccc([C@@H]2O[C@H](CO)[C@@H](O)[C@H]2O)c1`, the TGI [1] is reported as 15.4 µM, the TGI [2] is reported as 34.6 µM and the TGI [3] is reported as 11.7 µM. For the same molecule, the TGI [4] was 74.5 µM, the TGI [5] was > 85.4 µM and the TGI [6] was 67.2 µM. The TGI [7] was 19.7 µM, the TGI [8] was > 100 µM and the TGI [9] was 28.7 µM. The TGI [10] was > 100 µM, the TGI [11] was 34.3 µM and the TGI [12] was 14.4 µM. It also gave a TGI [13] of 15.7 µM.

For `Cc1cccc2c(=O)c3cccc([C@@H](C)C(=O)O)c3oc12`, the TGI [1] was > 100 µM, the TGI [2] was > 100 µM and the TGI [3] was > 100 µM. The TGI [4] was > 100 µM, the TGI [5] was > 100 µM and the TGI [6] was > 100 µM. The TGI [7] was > 100 µM, the TGI [8] was > 100 µM and the TGI [9] was > 100 µM. The TGI [10] was > 100 µM, the TGI [11] was > 100 µM and the TGI [13] was > 100 µM.

With `CCCC[C@H]1CCN2C[C@@H](O)[C@@H](O)[C@H]2[C@@H]1O` the TGI [1] was > 100 µM, the TGI [2] was > 100 µM and the TGI [3] was > 100 µM. For the same molecule, the TGI [4] was > 100 µM, the TGI [5] was > 100 µM and the TGI [6] was > 100 µM. The TGI [7] was > 100 µM, the TGI [8] was > 100 µM and the TGI [9] was > 100 µM. For the same molecule, the TGI [10] was > 100 µM, the TGI [11] was > 100 µM and the TGI [12] was > 100 µM. For the same molecule, the TGI [13] was > 100 µM.

`COc1ccc(CCc2nccn2C)cc1OC` was tested, and the TGI [1] was > 100 µM, the TGI [2] was > 100 µM and the TGI [3] was > 100 µM. For the same molecule, the TGI [4] was > 100 µM, the TGI [5] was > 100 µM and the TGI [6] was > 100 µM. The TGI [7] was > 100 µM, the TGI [8] was > 100 µM and the TGI [9] was > 100 µM. For the same molecule, the TGI [10] was > 100 µM, the TGI [11] was > 100 µM and the TGI [13] was > 100 µM.

With `Cc1c(C)c(S(=O)(=O)N(CCCCCON)OCCCN)c(C)c2c1OC(C)(C)CC2` the TGI [1] was 3.47 µM, the TGI [2] was > 100 µM and the TGI [3] was 28.5 µM. It also gave a TGI [4] of 41.7 µM, a TGI [5] of 22.5 µM and a TGI [6] of 28.7 µM. For the same molecule, the TGI [7] was 21.5 µM, the TGI [8] was 26.4 µM and the TGI [9] was 29.3 µM. For the same molecule, the TGI [10] was 29.1 µM, the TGI [11] was 28.9 µM and the TGI [12] was 27.3 µM. It also gave a TGI [13] of 30.2 µM.
